Reference: patent publication US11510964B2, “Macrocyclic peptides to decrease c-Myc protein levels and reduce cancer cell growth” (University of Kansas, priority 2017, dated 2022)
Non-standard residues stand in square brackets, D forms with d. Residues, ends and D or L forms follow the SMILES beside them.

Assays:
Assay type in all cases: cell-based, human
PC-3 cells = experiment: Cell cycle analysis (PI, flow cytometry); details: PC-3, 10 μM
Method: PC-3 cells were grown in T-75 flask to 75% confluency and treated with either 10 μM [D-Trp]CJ-15,208 in 0.5% DMSO or 0.5% DMSO as a vehicle control for 24-48 h. After treatment, the cell media was collected, the cells were washed with ice cold PBS twice, and the washes collected with the media. The cells were then trypsinized and the combined cells and media centrifuged at 1200 rpm for 5 min. The cell pellet was resuspended in PBS, the cells counted using a hematocytometer, and 1 million cells resuspended in 300 μL PBS. The cells were fixed with 700 μL ice cold 100% ethanol overnight and then centrifuged at 1200 rpm. Following removal of the ethanol, the cells were resuspended in 500 μL PBS containing 100 μg/mL RNAse and incubated for 30 min at room temperature. Propidium iodide (PI) solution (Sigma, 100 μg/mL) was added, and the solution then incubated for 30 min at room temperature in the dark. Cell cycle analysis^38 was performed using a Beckman-Coulter MoFlo XDP flow cytometer, and the cell cycle phase distribution was analyzed using FlowJo v10.1.
Each experiment was performed in triplicate unless otherwise stated in the figure legend. GraphPad Prism 5 was used to determine IC50 values. Data represent the mean value+/−SEM. Compound vs. vehicle treated cells in the cell cycle phase and apoptosis experiments (FIGS. 5-8) were compared using the student's t-test, with a two-tailed, unpaired method, using the Prism software. The effects of compound vs. vehicle treatment on protein levels (FIG. 10) were evaluated by one-way ANOVA with Dunnett's test for multiple comparisons.

PP2A in PC-3 cells = experiment: Western blot of p-PP2A/total PP2A protein levels
Method: Cells were seeded in 6 well plates at a density of 1×10^5 cells/well and grown to 75% confluence. Cells were treated with [D-Trp]CJ-15,208 at the indicated concentrations. Cells were then harvested as described above, and the cell pellets lysed in RIPA buffer consisting of 10 mM Tris HCl, pH 8.0, 150 mM NaCl, 1 mM EDTA, 1% Triton-X-100, 0.1% SDS, 1% sodium deoxycholate, and a protease inhibitor cocktail #P8340 (Sigma). Cell lysates were centrifuged at 13×1000 rpm for 15 min and the supernatants collected. The total protein concentration was measured in cell lysates using the standard Bradford assay. SDS gel electrophoresis was performed using 4-20% polyacrylamide gel (BioRad). […] Signal densities of the protein bands were determined using ImageJ software (NIH) and normalized to the internal loading control (actin).
Each experiment was performed in triplicate unless otherwise stated in the figure legend. […] The effects of compound vs. vehicle treatment on protein levels (FIG. 10) were evaluated by one-way ANOVA with Dunnett's test for multiple comparisons.

[1] = system: siRNA-transfected PC-3 cells; experiment: c-Myc knockdown, Annexin V-APC/PI apoptosis assay; details: 10 μM, 48 h
Method: The extent of apoptosis was analyzed by detecting surface expression of phosphatidylserine on apoptotic cells using an Annexin V-APC/PI dual staining apoptosis detection kit I (BD Biosciences) according to the manufacturer's protocol. Following treatment of PC-3 cells with 10 μM [D-Trp]CJ-15,208 or vehicle for 24 h or 48 h, the cells were collected, washed twice with cold PBS, and resuspended in 1× binding buffer at a concentration of 1×10^6 cells/mL. Cell suspension (100 μL) was transferred to a 5 ml culture tube, and 5 μL of Annexin V-APC and 25 μL of PI (50 μg/mL) were added. The cells were incubated for 15 min at room temperature in the dark with gentle vortexing, 400 μL of 1× binding buffer was then added to each sample, and the samples were analyzed using a Beckman-Coulter MoFlo XDP flow cytometer within one hour. The number of viable, apoptotic and necrotic cells were quantified using FlowJo v10.0.7. The apoptosis fraction (%) was calculated as (number of apoptotic cells/the number of total cells observed)×100%.^38
PC-3 cells were seeded at a density of 2×10^6 cells in 10 cm plates and grown to 75-85% confluence in EMEM supplemented with 10% FBS and penicillin/streptomycin. […] Samples were analyzed using a BD FACSCanto-II cell analyzer and quantified in FlowJo v10.2. […]

O=C1N[C@H](Cc2c[nH]c3ccccc23)C(=O)N[C@@H](Cc2ccccc2)C(=O)N2CCC[C@@H]2C(=O)N[C@H]1Cc1ccccc1 [[D-Trp]CJ-15,208, cyclo[Phe-D-Pro-Phe-D-Trp]] (cyclo(F[dP]F[dW]))
cell population in G2 phase (PC-3 cells; 24 h): 42±4%
mean cell distribution in S phase (PC-3 cells; 24 h): 26±4%
mean cell population in G1 phase (PC-3 cells; 24 h): 32±1%
cells accumulated in G2 phase compared to vehicle treated control cells (PC-3 cells; 24 h or 48 h): at least 8 fold
cell population in G2 phase (PC-3 cells; 48 h): 58±4%
mean cell distribution in S phase (PC-3 cells; 48 h): 12±0.6%
mean cell population in G1 phase (PC-3 cells; 48 h): 31±6%
total PP2A protein levels (PP2A in PC-3 cells; PC-3, 48 h, vs. vehicle treated cells): not significantly different
p-PP2A levels (PP2A in PC-3 cells; PC-3, concentrations ≥10 μM, 48 h): significantly reduced
early apoptosis ([1]; PC-3 transfected with nontargeting siRNA): significantly increased early apoptosis
early apoptosis ([1]; PC-3 transfected with siRNA against c-Myc): did not significantly affect
